# Measurements: US20210046071A1, “TETRACYCLIC COMPOUNDS AND THEIR SALTS, COMPOSITIONS, AND METHODS FOR THEIR USE” (Senhwa Biosciences, Inc., priority 2019, published 2021)
# Read-outs that look alike come from different tables or passages of the source.
# Assay: Pharmacokinetic studies in human, Compound I in plasma by LC/MS/MS
# Assay type: in vivo
# Conditions: for Cmax / Tmax / AUC(0-inf) / half-life / Vd / clearance: human, plasma
# Procedure: Pharmacokinetic studies and dose escalation studies were conducted in adult patients with metastatic, recurrent, locally, advanced, or unresectable solid malignancy (patients with histologically and/or cytologically confirmed solid malignancy), who received prior anti-cancer treatment(s) until disease progression, at 10 different dose levels of Compound I. Groups 1-7 were administered intravenously on days 1 and 8 of a 4-week cycle at 50, 100, 150, 200, 250, 325, and 475 mg/m^2 (lyophilized formulation), respectively. Groups 8-10 were administered intravenously on days 1,8, and 15 of a 4-week cycle at 325, 475, and 650 mg/m^2 (lyophilized formulation), respectively. Each patient received each dose over 1 hour by IV infusion on days described above.
# They lyophilized formulation was reconstituted with 5% glucose in sterile water, or similar biologically acceptable fluid, for IV infusion.
# For patients in Groups 1-7, blood samples were typically collected at Day 1 at pre-infusion (t=−1 h), during infusion at about 30 minutes (t=−0.5 h), immediately post infusion (t=0 h), 30 min post-infusion, 1 h post-infusion, 2 h post-infusion, 4 h post-infusion, and 6 h post-infusion, as well as at about 24 h post-infusion, 48 h post-infusion, and 72 h post-infusion. On Day 8, blood samples were typically collected at pre-infusion (t=−1 h), during infusion at about 30 minutes (t=−0.5 h), immediately post infusion (t=0 h), 30 min post-infusion, 1 h post-infusion, 2 h post-infusion, 4 h post-infusion, and 6 h post-infusion, as well as at about 24 h post-infusion, and 168 h post-infusion (Day 15).
# For patients in Groups 8-10, blood samples were typically collected at Day 1 at pre-infusion (t=−1 h), during infusion at about 30 minutes (t=−0.5 h), immediately post infusion (t=0 h), 30 min post-infusion, 1 h post-infusion, 2 h post-infusion, 4 h post-infusion, and 6 h post-infusion, as well as at about 24 h post-infusion, 48 h post-infusion, and 72 h post-infusion. On Day 8, blood samples were typically collected at pre-infusion (t=−1 h). On Day 15, blood samples were typically collected at pre-infusion (t=−1 h), during infusion at about 30 minutes (t=−0.5 h), immediately post infusion (t=0 h), 30 min post-infusion, 1 h post-infusion, 2 h post-infusion, 4 h post-infusion, and 6 h post-infusion, as well as at about 24 h post-infusion, and 168 h post-infusion (Day 22).
# Levels of Compound I in patient's plasma were analyzed by liquid chromatography tandem mass spectrometry (LC/MS/MS) assay. Experimental procedures of the validated methods are summarized below. The pharmacokinetic parameters after first dose and second dose for Groups 1-7 and after first dose and third dose for Groups 8-10 are shown in Tables 2A-2J. In Tables 2A-2J: SD=standard deviation; Cmax=maximum observed concentration; D=dose; Tmax=time to maximum observed concentration; T1/2=elimination half-life; Vd=volume of distribution; CL=drug clearance; and AUC∞=area under the concentration-time curve from time zero to infinity (total exposure).
# The concentrations of Compound I in human plasma samples collected from subjects of as discussed above. Compound I concentrations in plasma samples were measured based on 9 levels of calibration standards from 5.00 to 5000 ng/mL, and 3 levels of QC at 15.0 ng/mL (low), 2500 ng/mL (mid), and 4000 ng/mL (high).
# Two reference standard master stock solutions of Compound I were prepared by dissolving the Compound 1 reference standard with 50:50:0.1 ACN:diH2O:FA (v/v/v) and sonicating for 7 minutes (diH2O=deionized water). The resulting solutions were further diluted with 50:50:0.1 ACN:diH2O:FA (v/v/v) into a series of working stock solutions (WSS) for spiking of Compound I calibration standards and QC samples. The master stock solutions were prepared fresh on the day of assay, or stored at nominal 2° C. to 8° C. for later use. Master stock solutions were used within the stability timeframe. […]
# [1] = Group 1, 50 mg/m^2 IV, Day 1, mean, n = 4
# [2] = Group 1, 50 mg/m^2 IV, Day 8, mean, n = 3
# [3] = Group 2, 100 mg/m^2 IV, Day 8, mean, n = 3
# [4] = Group 3, 150 mg/m^2 IV, Day 1, mean, n = 4
# [5] = Group 3, 150 mg/m^2 IV, Day 8, mean, n = 4
# [6] = Group 4, 200 mg/m^2 IV, Day 1, mean, n = 4
# [7] = Group 4, 200 mg/m^2 IV, Day 8, mean, n = 4
# [8] = Group 5, 250 mg/m^2 IV, Day 1, mean, n = 3
# [9] = Group 5, 250 mg/m^2 IV, Day 8, mean, n = 3
# [10] = Group 6, 325 mg/m^2 IV, Day 1, mean, n = 3
# [11] = Group 6, 325 mg/m^2 IV, Day 8, mean, n = 3
# [12] = Group 7, 475 mg/m^2 IV, Day 1, mean, n = 3
# [13] = Group 7, 475 mg/m^2 IV, Day 8, mean, n = 3
# [14] = Group 9, 475 mg/m^2 IV, Day 1, mean, n = 5
# [15] = Group 10, 650 mg/m^2 IV, Day 1, mean, n = 5
# [16] = Group 10, 650 mg/m^2 IV, Day 15, mean, n = 5
# [17] = intravenous, Groups 8-10, Day 1, range of group means
# [18] = iv, 50 mg/m2, Group 1, 50 mg/m^2 IV, Day 1, mean, n = 4
# [19] = iv, 50 mg/m2, Group 1, 50 mg/m^2 IV, Day 8, mean, n = 3
# [20] = iv, 100 mg/m2, Group 2, 100 mg/m^2 IV, Day 1, mean, n = 4
# [21] = iv, 100 mg/m2, Group 2, 100 mg/m^2 IV, Day 8, mean, n = 3
# [22] = iv, 150 mg/m2, Group 3, 150 mg/m^2 IV, Day 1, mean, n = 4
smiles,measurement,setting,value
"Cc1cnc(CNC(=O)c2c(=O)c3ccc(N4CCCN(C)CC4)nc3n3c2sc2ccccc23)cn1 [Compound I, 2-(4-Methyl-[1,4]diazepan-1-yl)-5-oxo-5H-7-thia-1,11b-diaza-benzo[c]fluorene-6-carboxylic acid (5-methyl-pyrazin-2-ylmethyl)-amide]",AUC∞/D,[1],170 ng·h/mL/mg
same,Cmax/D,[1],8.14 ng/mL/mg
same,AUC∞/D,[2],94.9 ng·h/mL/mg
same,Cmax/D,[2],7.23 ng/mL/mg
same,AUC∞/D,"Group 2, 100 mg/m^2 IV, Day 1, mean, n = 3",38.3 ng·h/mL/mg
same,Cmax/D,"Group 2, 100 mg/m^2 IV, Day 1, mean, n = 4",5.94 ng/mL/mg
same,AUC∞/D,[3],47.4 ng·h/mL/mg
same,Cmax/D,[3],3.97 ng/mL/mg
same,AUC∞/D,[4],84.5 ng·h/mL/mg
same,Cmax/D,[4],5.43 ng/mL/mg
same,AUC∞/D,[5],91.1 ng·h/mL/mg
same,Cmax/D,[5],5.49 ng/mL/mg
same,AUC∞/D,[6],42.7 ng·h/mL/mg
same,Cmax/D,[6],26.9 ng/mL/mg
same,AUC∞/D,[7],44.5 ng·h/mL/mg
same,Cmax/D,[7],3.27 ng/mL/mg
same,AUC∞/D,[8],48.0 ng·h/mL/mg
same,Cmax/D,[8],3.15 ng/mL/mg
same,AUC∞/D,[9],64.6 ng·h/mL/mg
same,Cmax/D,[9],1.87 ng/mL/mg
same,AUC∞/D,[10],46.9 ng·h/mL/mg
same,Cmax/D,[10],2.14 ng/mL/mg
same,AUC∞/D,[11],57.8 ng·h/mL/mg
same,Cmax/D,[11],2.09 ng/mL/mg
same,AUC∞/D,[12],44.0 ng·h/mL/mg
same,Cmax/D,[12],2.48 ng/mL/mg
same,AUC∞/D,[13],44.1 ng·h/mL/mg
same,Cmax/D,[13],2.15 ng/mL/mg
same,AUC∞/D,"Group 8, 325 mg/m^2 IV, Day 1, mean, n = 3",52.1 ng·h/mL/mg
same,Cmax/D,"Group 8, 325 mg/m^2 IV, Day 1, mean, n = 4",2.04 ng/mL/mg
same,Cmax/D,"Group 8, 325 mg/m^2 IV, Day 15, mean, n = 4",35.5 ng/mL/mg
same,AUC∞/D,[14],42.7 ng·h/mL/mg
same,Cmax/D,[14],2.01 ng/mL/mg
same,AUC∞/D,"Group 9, 475 mg/m^2 IV, Day 15, mean, n = 4",39.8 ng·h/mL/mg
same,Cmax/D,"Group 9, 475 mg/m^2 IV, Day 15, mean, n = 5",3.34 ng/mL/mg
same,AUC∞/D,[15],46.5 ng·h/mL/mg
same,Cmax/D,[15],2.61 ng/mL/mg
same,AUC∞/D,[16],48.6 ng·h/mL/mg
same,Cmax/D,[16],3.44 ng/mL/mg
same,Plasma kinetic behavior,"all dose levels, Groups 1-10",semi-logarithmic biphasic kinetic behavior
same,Cmax,"intravenous, 200 mg/m2, Groups 1-7, Day 1, range of group means (200 mg/m^2 outlier apart)",728 to 1940 ng/mL
same,Cmax,"intravenous, 325 mg/m2, Groups 8-10, Day 15, range of group means (325 mg/m^2 outlier apart)",2870 to 4170 ng/mL
same,Tmax,"intravenous, Groups 1-7, 50 to 475 mg/m^2, Day 1, range of group means",0.508 to 1.19 h
same,AUC(0-inf),"intravenous, Groups 1-7, Day 1, range of group means, read-out: Total exposures (AUC∞)",6650 to 36200 ng·h/mL
same,half-life,"intravenous, Groups 1-7, Day 1 dose, range of group means, read-out: Apparent elimination half-lives",37.3 to 81.8 h
same,Cmax,"intravenous, Groups 1-7, Day 8, range of group means",642 to 1710 ng/mL
same,AUC(0-inf),"intravenous, Groups 1-7, Day 8, range of group means, read-out: Total exposures (AUC∞)",9120 to 35400 ng·h/mL
same,half-life,"intravenous, Groups 1-7, Day 8 dose, range of group means, read-out: Apparent elimination half-lives",42.6 to 96.9 h
same,Cmax,[17],1140 to 3080 ng/mL
same,Tmax,[17],0.767 to 1.18 h
same,AUC(0-inf),"intravenous, Groups 8-10, Day 1, range of group means, read-out: Total exposures (AUC∞)",29100 to 57500 ng·h/mL
same,half-life,"intravenous, Groups 8-10, Day 1 dose, range of group means, read-out: Apparent elimination half-lives",61.5 to 122 h
same,AUC(0-inf),"intravenous, Groups 8-10, Day 15, range of group means, read-out: Total exposures (AUC∞)",32500 to 62200 ng·h/mL
same,half-life,"intravenous, Groups 8-10, Day 15 dose, range of group means, read-out: Apparent elimination half-lives",59 to 93.6 h
same,Cmax,[18],728 ng/mL
same,Tmax,[18],0.758 h
same,Vd,[18],866 L
same,clearance,[18],265 mL/min
same,AUC(0-inf),"iv, 50 mg/m2, Group 1, 50 mg/m^2 IV, Day 1, mean, n = 4, read-out: AUC∞",16300 ng·h/mL
same,half-life,"iv, 50 mg/m2, Group 1, 50 mg/m^2 IV, Day 1, mean, n = 4, read-out: T1/2 (converted)",60.1 h
same,Cmax,[19],642 ng/mL
same,Tmax,[19],1.01 h
same,Vd,[19],752 L
same,clearance,[19],275 mL/min
same,AUC(0-inf),"iv, 50 mg/m2, Group 1, 50 mg/m^2 IV, Day 8, mean, n = 3, read-out: AUC∞",9120 ng·h/mL
same,half-life,"iv, 50 mg/m2, Group 1, 50 mg/m^2 IV, Day 8, mean, n = 3, read-out: T1/2 (converted)",42.6 h
same,Vd,"iv, 100 mg/m2, Group 2, 100 mg/m^2 IV, Day 1, mean, n = 3",1400 L
same,AUC(0-inf),"iv, 100 mg/m2, Group 2, 100 mg/m^2 IV, Day 1, mean, n = 3, read-out: AUC∞",6650 ng·h/mL
same,half-life,"iv, 100 mg/m2, Group 2, 100 mg/m^2 IV, Day 1, mean, n = 3, read-out: T1/2 (converted)",37.3 h
same,Cmax,[20],1090 ng/mL
same,Tmax,[20],0.508 h
same,Cmax,[21],804 ng/mL
same,Tmax,[21],0.7 h
same,Vd,[21],1850 L
same,AUC(0-inf),"iv, 100 mg/m2, Group 2, 100 mg/m^2 IV, Day 8, mean, n = 3, read-out: AUC∞",9160 ng·h/mL
same,half-life,"iv, 100 mg/m2, Group 2, 100 mg/m^2 IV, Day 8, mean, n = 3, read-out: T1/2 (converted)",60.4 h
same,Cmax,[22],1230 ng/mL
same,Tmax,[22],0.65 h
same,Vd,[22],900 L
same,clearance,[22],252 mL/min
same,AUC(0-inf),"iv, 150 mg/m2, Group 3, 150 mg/m^2 IV, Day 1, mean, n = 4, read-out: AUC∞",20000 ng·h/mL
same,half-life,"iv, 150 mg/m2, Group 3, 150 mg/m^2 IV, Day 1, mean, n = 4, read-out: T1/2 (converted)",48.1 h
same,Cmax,"iv, 150 mg/m2, Group 3, 150 mg/m^2 IV, Day 8, mean, n = 4",1270 ng/mL
